From patent US5935954A, “Compounds with improved multi-drug resistance activity” (Vertex Pharmaceuticals Incorporated, priority 1997, dated 1999)
Like-named read-outs stand apart in the source and are kept apart here.

Legend:
FKBP12 = FKBP12 (Homo sapiens, UniProt P62942); assay: FKBP12 binding assay (inhibition of rotomase activity); assay type: biochemical; conditions: apparent Ki
Description: Preferably, the assay measures inhibition of FKBP12 rotomase activity. Such an assay has also been described by M. W. Harding et al., supra and by J. J. Siekierka et al., supra. In this assay the isomerization of an artificial substrate--N-succinyl-Ala-Ala-Pro-Phe-p-nitroanilide--is followed spectrophotometrically. The assay includes the cis form of the substrate, FKBP12, the inhibitor and chymotrypsin. Chymotrypsin is able to cleave p-nitroanilide from the trans form of the substrate, but not the cis form. Release of p-nitroanilide is measured.
The inhibition of FKBP rotomase activity by the preferred FKBP12 binding compounds present in the compositions of this invention was assayed. In this assay various quantities of FKBP12 binding compound (0nM-10 μM) were added to cis-N-succinyl-Ala-Ala-Pro-Phe-p-nitroanilide in the presence of FKBP12 and chymotrypsin. FKBP12 converts the cis form of the substrate to the trans form. This allows chymotrypsin to cleave p-nitroanilide from the substrate. Release of p-nitroanilide was measured spectrophotometrically. This assay allowed me to measure the change in the first order rate constant of the rotomase activity as a function of FKBP12 binding compound concentration and yielded an estimate of apparent Ki.

[1] = test system: L1210 mouse leukemia cells transformed with the pHaMDR1/A retrovirus carrying a MDR1 cDNA; assay: cells; assay type: cell-based; conditions: for MDR Ratio: IC50 Dox / IC50 Dox+Inhibitor, 2.5 μM compound; for IC50: Mus musculus, doxorubicin alone
Procedure: To assay the ability of the compounds according to this invention to increase the antiproliferative activity of a drug, cell lines which are known to be resistant to a particular drug may be used. These cell lines include, but are not limited to, the L1210, P388D, CHO and MCF7 cell lines. Alternatively, resistant cell lines may be developed. The cell line is exposed to the drug to which it is resistant, or to the test compound; cell viability is then measured and compared to the viability of cells which are exposed to the drug in the presence of the test compound.
To carry out assays using L1210 mouse leukemia cells transformed with the pHaMDR1/A retrovirus carrying a MDR1 cDNA, we follow the procedure described by Pastan et al., Proc. Natl. Acad. Sci., Vol. 85, […] 4490 (1988). The resistant line, labelled L1210VMDRC.06, is obtained from Dr. M. M. Gottesman of the National Cancer Institute. Drug-resistant transfectants are selected by culturing cells in […] colchicine.
Multi-drug resistance assays are conducted by plating cells (2×10^3, 1×10^4, or 5×10^4 cells/well) in 96 well microtiter plates and exposing them to a concentration range of doxorubicin (50 nM-10 μM) in the presence or absence of multi-drug resistance modifier compounds ("MDR inhibitors") of this invention (1, 2.5 or 10 μM) as described in Ford et al., Cancer Res., Vol. 50, 1748-1756. (1990). After culture for 3 days, the viability of cells is quantitated using MTT (Mossman) or XTT dyes to assess mitochondrial function. Also see, Mossman T., J. Immunol. Methods, Vol. 65, 55-63 (1983).
Results are determined by comparison of the IC50 for doxorubicin alone to the IC50 for doxorubicin+MDR inhibitor. An MDR ratio is calculated (IC50 Dox/ IC50 Dox+Inhibitor) and the integer value used for comparison of compound potencies. […]

sensory ganglia = conditions: cited from earlier work
[2] = test system: FK506 binding protein or FKBP12; conditions: cited from earlier work
[3] = test system: rat pheochromocytoma cell line; conditions: with NGF; cited from earlier work
[4] = test system: multi-drug resistant ("MDR") cells; conditions: cited from earlier work
nerve cells = conditions: cited from earlier work

FKBP12, sequence (P62942 whole entry, species assumed): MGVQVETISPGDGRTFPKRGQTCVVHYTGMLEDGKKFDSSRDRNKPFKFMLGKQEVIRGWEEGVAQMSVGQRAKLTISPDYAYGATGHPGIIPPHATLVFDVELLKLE

Structure (SMILES) | Ki (FKBP12) | MDR Ratio ([1]; Date 5/12/95) | further results
CCOCc1cc2ccccc2n1-c1cccc([C@@H](OC(=O)[C@@H]2CCCCN2C(=O)C(=O)c2ccco2)/C(C)=C/[C@H]2CC[C@H](O)CC2)c1 [Compound 43] | 180 nM | 14.0 | 
CO[C@H]1C[C@@H]2CC[C@@H](C)[C@@](O)(O2)C(=O)C(=O)N2CCCC[C@H]2C(=O)O[C@H]([C@H](C)C[C@@H]2CC[C@@H](O)[C@H](OC)C2)CC(=O)[C@H](C)/C=C(\C)[C@@H](O)[C@@H](OC)C(=O)[C@H](C)C[C@H](C)/C=C/C=C/C=C/1C [rapamycin] |  |  | neurotrophic effects (sensory ganglia): those effects were blocked by rapamycin; binding to FKBP12 [2]: have the ability to bind; neurite outgrowth [3]: did not inhibit the effects of FK-506 on neurite outgrowth, but rather was neurotrophic itself, displaying an additive effect with FK-506
COc1cc(C(=O)C(=O)N2CCCC[C@H]2C(=O)O[C@H](/C(C)=C/[C@H]2CC[C@H](O)CC2)c2cncc(-c3c(OC)cccc3OC)c2)cc(OC)c1OC [Compound 32] | 9.8 nM | 11.7 | 
COc1cc(C(=O)C(=O)N2CCCC[C@H]2C(=O)O[C@H](CCCc2ccccc2)c2cncc(-c3c(OC)cccc3OC)c2)cc(OC)c1OC [Compound 24] | 0.5 nM | > 14.0 | 
CCC/C=C(\c1cccnc1)c1cccc([C@@H](CCN2CCOCC2)OC(=O)[C@@H]2CCCCN2C(=O)C(=O)c2cc(OC)c(OC)c(OC)c2)c1 [Compound 30] | 27 nM | 14.0 | 
COCc1cccc(COC)c1-c1cncc([C@@H](OC(=O)[C@@H]2CCCCN2C(=O)C(=O)c2ccco2)/C(C)=C/[C@H]2CC[C@H](O)CC2)c1 [Compound 40] | 500 nM | 2.5 | 
CCCOc1ccc(OCCC)c(-c2cncc([C@@H](CCCc3ccccc3)OC(=O)[C@@H]3CCCCN3C(=O)C(=O)c3cc(OC)c(OC)c(OC)c3)c2)c1 [Compound 22] | 31 nM | 1.3 | MDR Ratio ([1]; Date 4/21/95): 12.4
C=CCC/C=C(/c1cccnc1)c1ccc([C@@H](OC(=O)[C@@H]2CCCCN2C(=O)C(=O)C(C)(C)C)/C(C)=C/C2CCN(C)CC2)s1 [Compound 52] | 200 nM | 4.1 | MDR Ratio ([1]; Date 4/21/95): 5.8
COc1cccc2c1C(=O)c1c(O)c3c(c(O)c1C2=O)C[C@@](O)(C(=O)CO)C[C@@H]3O[C@H]1C[C@H](N)[C@H](O)[C@H](C)O1 [DXR, doxorubicin, reference compound] |  |  | IC50 ([1]; L1210, read-out: IC50 DXR Alone, Date 4/21/95): 2100 nM; IC50 ([1]; L1210, read-out: IC50 DXR Alone, Date 5/12/95): 700 nM
C=CC[C@@H]1/C=C(\C)C[C@H](C)C[C@H](OC)[C@H]2O[C@@](O)(C(=O)C(=O)N3CCCC[C@H]3C(=O)O[C@H](/C(C)=C/[C@@H]3CC[C@@H](O)[C@H](OC)C3)[C@H](C)[C@@H](O)CC1=O)[C@H](C)C[C@@H]2OC [FK506] |  |  | neurotrophic effects (sensory ganglia): demonstrated similar neurotrophic effects; sensitization of MDR cells / activity against multi-drug resistance [4]: effective against multi-drug resistance; binding to FKBP12 [2]: have the ability to bind; stimulation of neurite outgrowth (nerve cells): effective in stimulating neurite outgrowth; neurite outgrowth [3]: acts synergistically
COC/C=C(\c1cncc([C@@H](OC(=O)[C@@H]2CCCCN2C(=O)C(=O)CC(C)C)/C(C)=C/[C@H]2CC[C@H](O)CC2)c1)C1CCCCC1 [Compound 59] | 71 nM | 10.8 | 
CC/C=C(/c1cccnc1)c1cccc([C@H](CCCc2ccccc2)OC(=O)[C@@H]2CCCCN2C(=O)C(=O)c2cc(OC)c(OC)c(OC)c2)c1 [Compound 28] | 20 nM | 10.0 | 
CCC/C=C(/c1cccnc1)c1cccc([C@H](CCN2CCOCC2)OC(=O)[C@@H]2CCCCN2C(=O)C(=O)c2cc(OC)c(OC)c(OC)c2)c1 [Compound 27] | 260 nM | 12.7 | 
CCC/C=C(/c1cccnc1)c1cccc([C@@H](CCN2CCOCC2)OC(=O)[C@@H]2CCCCN2C(=O)C(=O)c2cc(OC)c(OC)c(OC)c2)c1 [Compound 26] | 2.4 nM | 8.8 | 

Continued, in another order:

Ki (FKBP12) | Structure (SMILES) | MDR Ratio ([1]; Date 5/12/95) | further results
380 nM | CCC/C=C(\c1cncc(C(OC(=O)[C@@H]2CCCCN2C(=O)C(=O)C2(O)CCC(OC)CC2)/C(C)=C/c2ccncc2)c1)C1CCCCC1 (stereo partly drawn) [Compound 100] | < 14.0 | 
8 nM | C=CCC/C=C(\c1ccc(C(CCN2CCOCC2)OC(=O)[C@@H]2CCCCN2C(=O)C(=O)C(C)(C)C(C)C)s1)C1CCOCC1 (stereo partly drawn) [Compound 91] | 2.7 | 
930 nM | CCCCc1ccc(C)n1-c1cccc([C@@H](CCN2CCOCC2)OC(=O)[C@@H]2CCCCN2C(=O)C(=O)[C@@H]2C[C@H](C(C)(C)OC)CC[C@H]2C)c1 [Compound 112] | 10.8 | 
400 nM | CCOCc1cccc(COCC)c1-c1cncc([C@H](CCN2CCOCC2)OC(=O)[C@@H]2CCCCN2C(=O)C(=O)C2(C)CCCCC2)c1 [Compound 76] | 6.4 | 
800 nM | CCCc1ccc(CCC)n1-c1cccc([C@@H](CCN2CCOCC2)OC(=O)[C@@H]2CCCCN2C(=O)C(=O)[C@@H]2C[C@H](OCC)CC[C@H]2C)c1 [Compound 111] | 9.3 | 
7600 nM | CCCc1ccc(CCC)n1-c1cccc([C@@H](CCN2CCOCC2)OC(=O)[C@@H]2CCCCN2C(=O)C(=O)[C@@H]2C[C@H](C(C)(C)OC)CC=C2C)c1 [Compound 107] | 8.8 | 
263 nM | CCOCc1cccc(COCC)c1-c1cncc(C(CCN2CCOCC2)OC(=O)[C@@H]2CCCCN2C(=O)C(=O)C(C)(C)C(C)C)c1 (stereo partly drawn) [Compound 89] | 5.0 | 
> 10000 nM | CCOCc1cccc(COCC)c1-c1csc([C@H](CCN2CCOCC2)OC(=O)[C@@H]2CCCCN2C(=O)C(=O)C2CCOCC2)c1 [Compound 61] | 2.5 | 
61 nM | CCC/C(=C/COC)c1cncc([C@@H](CCN2CCOCC2)OC(=O)[C@@H]2CCCCN2C(=O)C(=O)C(C)(C)C(C)C)c1 [Compound 113] | 7.0 | 
9 nM | C=CCC/C=C(/c1cccnc1)c1ccc(C(CCN2CCOCC2)OC(=O)[C@@H]2CCCCN2C(=O)C(=O)C(C)(C)C(C)C)s1 (stereo partly drawn) [Compound 90] | 7.4 | 
12 nM | CCOCc1cccc(COCC)c1-c1ccc([C@@H](CCN2CCOCC2)OC(=O)[C@@H]2CCCCN2C(=O)C(=O)C2(C)CCCCC2)s1 [Compound 79] | 7.8 | 
2800 nM | CCC/C(=C/COC)c1cncc([C@@H](CCN2CCOCC2)OC(=O)[C@@H]2CCCCN2C(=O)C(=O)[C@@H]2C[C@H](C(C)(C)OC)CC[C@H]2C)c1 [Compound 123] |  | MDR Ratio ([1]; Date 4/21/95): 12.4
94 nM | CCCc1ccc(CCC)n1-c1cccc([C@@H](CCN2CCOCC2)OC(=O)[C@@H]2CCCCN2C(=O)C(=O)[C@@H]2CCCC[C@H]2C)c1 [Compound 105] | 5.4 | 
